Test results published in PubChem BioAssay AID1963425 (Molecular Pharmacology Branch, DTP, NCI, 2024).

Tested on: 323965-272-R-J2-PDC complex spheroid growth, % test/control
Assay: Anticancer human tumor 323965-272-R-J2-PDC patient-derived pancreatic carcinoma cell line growth inhibition [Asc]
Details: for IC50: curve of first compound; for viability, T/C: stronger effect = lower value
Method in brief: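 Complex solid-tumor spheroids incorporating human endothelial and mesenchymal stem cells received single agents or combinations over half-log dilution ranges anchored to clinical Cmax.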

[1] = second compound 0.0316 µM, first compound 0.0316 µM
[2] = second compound 0.0316 µM, first compound 0.1 µM
[3] = second compound 0.0316 µM, first compound 0.316 µM
[4] = second compound 0.0316 µM, first compound 1 µM
[5] = second compound 0.0316 µM, first compound 3.16 µM
[6] = second compound 0.0316 µM, first compound 10 µM
[7] = second compound 0.1 µM, first compound 0.0316 µM
[8] = second compound 0.1 µM, first compound 0.1 µM
[9] = second compound 0.1 µM, first compound 0.316 µM
[10] = second compound 0.1 µM, first compound 1 µM
[11] = second compound 0.1 µM, first compound 3.16 µM
[12] = second compound 0.1 µM, first compound 10 µM
[13] = second compound 0.316 µM, first compound 0.0316 µM
[14] = second compound 0.316 µM, first compound 0.1 µM
[15] = second compound 0.316 µM, first compound 0.316 µM
[16] = second compound 0.316 µM, first compound 1 µM
[17] = second compound 0.316 µM, first compound 3.16 µM
[18] = second compound 0.316 µM, first compound 10 µM
[19] = second compound 1 µM, first compound 0.0316 µM
[20] = second compound 1 µM, first compound 0.1 µM
[21] = second compound 1 µM, first compound 0.316 µM
[22] = second compound 1 µM, first compound 1 µM
[23] = second compound 1 µM, first compound 3.16 µM
[24] = second compound 1 µM, first compound 10 µM
[25] = second compound 3.16 µM, first compound 0.0316 µM
[26] = second compound 3.16 µM, first compound 0.1 µM
[27] = second compound 3.16 µM, first compound 0.316 µM
[28] = second compound 3.16 µM, first compound 1 µM
[29] = second compound 3.16 µM, first compound 3.16 µM
[30] = second compound 3.16 µM, first compound 10 µM
[31] = second compound 10 µM, first compound 0.0316 µM
[32] = second compound 10 µM, first compound 0.1 µM
[33] = second compound 10 µM, first compound 0.316 µM
[34] = second compound 10 µM, first compound 1 µM
[35] = second compound 10 µM, first compound 3.16 µM
[36] = second compound 10 µM, first compound 10 µM
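Note: compound exposure lasted 7 days starting three days after spheroid seeding.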
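Throughout, for viability, T/C: 100% = DMSO vehicle control wells with viability set relative to vehicle.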

SMILES: C=C(F)C(=O)N1CCN(c2nc(OCC3CCCN3C)nc3c2CCN(c2cccc4cccc(Cl)c24)C3)CC1CC#N (stereo unspecified) + Cc1c(S(C)(=O)=O)c(-c2cc(F)cc(N3CCN(c4ccc(NS(=O)(=O)c5ccc(NC(CCN6CCC(C(=O)OCCCP(=O)(O)O)CC6)CSc6ccccc6)c(S(=O)(=O)C(F)(F)F)c5)cc4)CC3)c2)c(-c2ccc(Cl)cc2)n1C(C)C
- IC50 (second compound 0.0316 µM): 4.34 µM
- IC50 (second compound 0.1 µM): 4.22 µM
- IC50 (second compound 0.316 µM): 3.72 µM
- IC50 (second compound 1 µM): 3.41 µM
- IC50 (second compound 3.16 µM): < 0.0316 µM
- IC50 (second compound 10 µM): < 0.0316 µM
- viability, T/C [1]: 70.5%
- viability, T/C [2]: 62.3%
- viability, T/C [3]: 59.3%
- viability, T/C [4]: 62.1%
- viability, T/C [5]: 75%
- viability, T/C [6]: 8.41%
- viability, T/C [7]: 69.7%
- viability, T/C [8]: 61.2%
- viability, T/C [9]: 60.1%
- viability, T/C [10]: 66.7%
- viability, T/C [11]: 72.2%
- viability, T/C [12]: 2.28%
- viability, T/C [13]: 62.3%
- viability, T/C [14]: 52.4%
- viability, T/C [15]: 54.4%
- viability, T/C [16]: 62.2%
- viability, T/C [17]: 60.1%
- viability, T/C [18]: 0.32%
- viability, T/C [19]: 56%
- viability, T/C [20]: 50.8%
- viability, T/C [21]: 51.3%
- viability, T/C [22]: 55.1%
- viability, T/C [23]: 54.1%
- viability, T/C [24]: 0.2%
- viability, T/C [25]: 51.4%
- viability, T/C [26]: 41.2%
- viability, T/C [27]: 45%
- viability, T/C [28]: 41.8%
- viability, T/C [29]: 36.8%
- viability, T/C [30]: 0.16%
- viability, T/C [31]: 44.1%
- viability, T/C [32]: 43.5%
- viability, T/C [33]: 34.5%
- viability, T/C [34]: 41.4%
- viability, T/C [35]: 34.4%
- viability, T/C [36]: 0.16%

SMILES: C=CC(=O)N1CCN(c2nc(=O)n(-c3c(C)ccnc3C(C)C)c3nc(-c4c(O)cccc4F)c(F)cc23)C(C)C1 (stereo unspecified) + Cc1c(S(C)(=O)=O)c(-c2cc(F)cc(N3CCN(c4ccc(NS(=O)(=O)c5ccc(NC(CCN6CCC(C(=O)OCCCP(=O)(O)O)CC6)CSc6ccccc6)c(S(=O)(=O)C(F)(F)F)c5)cc4)CC3)c2)c(-c2ccc(Cl)cc2)n1C(C)C
- IC50 (second compound 0.0316 µM): > 10 µM
- IC50 (second compound 0.1 µM): > 10 µM
- IC50 (second compound 0.316 µM): > 10 µM
- IC50 (second compound 1 µM): > 10 µM
- IC50 (second compound 3.16 µM): 0.0793 µM
- IC50 (second compound 10 µM): < 0.0316 µM
- viability, T/C [1]: 82.1%
- viability, T/C [2]: 64.8%
- viability, T/C [3]: 65.9%
- viability, T/C [4]: 62.3%
- viability, T/C [5]: 63.7%
- viability, T/C [6]: 67%
- viability, T/C [7]: 74.3%
- viability, T/C [8]: 64.4%
- viability, T/C [9]: 68%
- viability, T/C [10]: 64.2%
- viability, T/C [11]: 66.7%
- viability, T/C [12]: 56.8%
- viability, T/C [13]: 76.8%
- viability, T/C [14]: 60.1%
- viability, T/C [15]: 56.1%
- viability, T/C [16]: 59%
- viability, T/C [17]: 58.6%
- viability, T/C [18]: 53.5%
- viability, T/C [19]: 65.3%
- viability, T/C [20]: 59.5%
- viability, T/C [21]: 57%
- viability, T/C [22]: 54.5%
- viability, T/C [23]: 61.4%
- viability, T/C [24]: 46%
- viability, T/C [25]: 62.2%
- viability, T/C [26]: 47.4%
- viability, T/C [27]: 43.2%
- viability, T/C [28]: 38.4%
- viability, T/C [29]: 43.8%
- viability, T/C [30]: 44%
- viability, T/C [31]: 48.2%
- viability, T/C [32]: 40.9%
- viability, T/C [33]: 39.7%
- viability, T/C [34]: 40.5%
- viability, T/C [35]: 44.9%
- viability, T/C [36]: 39%

SMILES: CCN1C(C(=O)NC23CCC(C(=O)O)(CC2)CC3)C(c2cccc(Cl)c2F)C2(C(=O)Nc3cc(Cl)ccc32)C12CCCCC2 (stereo unspecified) + Cc1c(S(C)(=O)=O)c(-c2cc(F)cc(N3CCN(c4ccc(NS(=O)(=O)c5ccc(NC(CCN6CCC(C(=O)OCCCP(=O)(O)O)CC6)CSc6ccccc6)c(S(=O)(=O)C(F)(F)F)c5)cc4)CC3)c2)c(-c2ccc(Cl)cc2)n1C(C)C
- IC50 (second compound 0.0316 µM): > 3 µM
- IC50 (second compound 0.1 µM): > 3 µM
- IC50 (second compound 0.316 µM): > 3 µM
- IC50 (second compound 1 µM): > 3 µM
- IC50 (second compound 3.16 µM): 1.87 µM
- IC50 (second compound 10 µM): 1.18 µM
- viability, T/C (second compound 0.0316 µM, first compound 0.00949 µM): 117%
- viability, T/C (second compound 0.0316 µM, first compound 0.03 µM): 103%
- viability, T/C (second compound 0.0316 µM, first compound 0.0949 µM): 88.5%
- viability, T/C (second compound 0.0316 µM, first compound 0.3 µM): 101%
- viability, T/C (second compound 0.0316 µM, first compound 0.949 µM): 98.8%
- viability, T/C (second compound 0.0316 µM, first compound 3 µM): 93.8%
- viability, T/C (second compound 0.1 µM, first compound 0.00949 µM): 110%
- viability, T/C (second compound 0.1 µM, first compound 0.03 µM): 94.2%
- viability, T/C (second compound 0.1 µM, first compound 0.0949 µM): 104%
- viability, T/C (second compound 0.1 µM, first compound 0.3 µM): 101%
- viability, T/C (second compound 0.1 µM, first compound 0.949 µM): 88.4%
- viability, T/C (second compound 0.1 µM, first compound 3 µM): 81.8%
- viability, T/C (second compound 0.316 µM, first compound 0.00949 µM): 89.4%
- viability, T/C (second compound 0.316 µM, first compound 0.03 µM): 97.9%
- viability, T/C (second compound 0.316 µM, first compound 0.0949 µM): 94.5%
- viability, T/C (second compound 0.316 µM, first compound 0.3 µM): 87.1%
- viability, T/C (second compound 0.316 µM, first compound 0.949 µM): 90%
- viability, T/C (second compound 0.316 µM, first compound 3 µM): 65.3%
- viability, T/C (second compound 1 µM, first compound 0.00949 µM): 95.3%
- viability, T/C (second compound 1 µM, first compound 0.03 µM): 81.8%
- viability, T/C (second compound 1 µM, first compound 0.0949 µM): 86.5%
- viability, T/C (second compound 1 µM, first compound 0.3 µM): 80.3%
- viability, T/C (second compound 1 µM, first compound 0.949 µM): 81.8%
- viability, T/C (second compound 1 µM, first compound 3 µM): 54%
- viability, T/C (second compound 3.16 µM, first compound 0.00949 µM): 70.6%
- viability, T/C (second compound 3.16 µM, first compound 0.03 µM): 76.3%
- viability, T/C (second compound 3.16 µM, first compound 0.0949 µM): 75.9%
- viability, T/C (second compound 3.16 µM, first compound 0.3 µM): 69.4%
- viability, T/C (second compound 3.16 µM, first compound 0.949 µM): 64.7%
- viability, T/C (second compound 3.16 µM, first compound 3 µM): 40.1%
- viability, T/C (second compound 10 µM, first compound 0.00949 µM): 71.7%
- viability, T/C (second compound 10 µM, first compound 0.03 µM): 67%
- viability, T/C (second compound 10 µM, first compound 0.0949 µM): 71.9%
- viability, T/C (second compound 10 µM, first compound 0.3 µM): 62.1%
- viability, T/C (second compound 10 µM, first compound 0.949 µM): 54.2%
- viability, T/C (second compound 10 µM, first compound 3 µM): 34%
